For assay [1], the target named is T1, HiBit-BRM fusion protein (Homo sapiens, UniProt P51531).
T1 construct: expressed in transfected cells
In words: HiBiT-BRM cell-based degradation assay (Nano-Glo HiBiT Lytic Detection, 24 h). Conditions: HeLa cells expressing HiBiT-BRM; for DC50: read-out: BRM HiBit Degradation IC50; for BRM HiBit Degradation Maximum measured: top dose 30 μM. A digest of the protocol: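 HeLa cells stably expressing HiBiT-BRM were dosed with compounds (10-point 3-fold dilutions, 30 μM final top dose, duplicate) for 24 h. HiBiT signal was read by lytic LgBiT complementation luminescence. Percent degradation was normalised to DMSO (high control) and 2 μM of a reference BRM/BRG1 degrader (low control).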
(In general: HiBiT is a short tag that completes a luciferase, so light tracks the accessible tagged protein.)

In assay [2] the target is T2, HiBit-BRG1 fusion protein (Homo sapiens, UniProt P51532).
T2 construct: expressed in transfected cells
T2 sequence (P51532 whole entry, the tested form may be a part): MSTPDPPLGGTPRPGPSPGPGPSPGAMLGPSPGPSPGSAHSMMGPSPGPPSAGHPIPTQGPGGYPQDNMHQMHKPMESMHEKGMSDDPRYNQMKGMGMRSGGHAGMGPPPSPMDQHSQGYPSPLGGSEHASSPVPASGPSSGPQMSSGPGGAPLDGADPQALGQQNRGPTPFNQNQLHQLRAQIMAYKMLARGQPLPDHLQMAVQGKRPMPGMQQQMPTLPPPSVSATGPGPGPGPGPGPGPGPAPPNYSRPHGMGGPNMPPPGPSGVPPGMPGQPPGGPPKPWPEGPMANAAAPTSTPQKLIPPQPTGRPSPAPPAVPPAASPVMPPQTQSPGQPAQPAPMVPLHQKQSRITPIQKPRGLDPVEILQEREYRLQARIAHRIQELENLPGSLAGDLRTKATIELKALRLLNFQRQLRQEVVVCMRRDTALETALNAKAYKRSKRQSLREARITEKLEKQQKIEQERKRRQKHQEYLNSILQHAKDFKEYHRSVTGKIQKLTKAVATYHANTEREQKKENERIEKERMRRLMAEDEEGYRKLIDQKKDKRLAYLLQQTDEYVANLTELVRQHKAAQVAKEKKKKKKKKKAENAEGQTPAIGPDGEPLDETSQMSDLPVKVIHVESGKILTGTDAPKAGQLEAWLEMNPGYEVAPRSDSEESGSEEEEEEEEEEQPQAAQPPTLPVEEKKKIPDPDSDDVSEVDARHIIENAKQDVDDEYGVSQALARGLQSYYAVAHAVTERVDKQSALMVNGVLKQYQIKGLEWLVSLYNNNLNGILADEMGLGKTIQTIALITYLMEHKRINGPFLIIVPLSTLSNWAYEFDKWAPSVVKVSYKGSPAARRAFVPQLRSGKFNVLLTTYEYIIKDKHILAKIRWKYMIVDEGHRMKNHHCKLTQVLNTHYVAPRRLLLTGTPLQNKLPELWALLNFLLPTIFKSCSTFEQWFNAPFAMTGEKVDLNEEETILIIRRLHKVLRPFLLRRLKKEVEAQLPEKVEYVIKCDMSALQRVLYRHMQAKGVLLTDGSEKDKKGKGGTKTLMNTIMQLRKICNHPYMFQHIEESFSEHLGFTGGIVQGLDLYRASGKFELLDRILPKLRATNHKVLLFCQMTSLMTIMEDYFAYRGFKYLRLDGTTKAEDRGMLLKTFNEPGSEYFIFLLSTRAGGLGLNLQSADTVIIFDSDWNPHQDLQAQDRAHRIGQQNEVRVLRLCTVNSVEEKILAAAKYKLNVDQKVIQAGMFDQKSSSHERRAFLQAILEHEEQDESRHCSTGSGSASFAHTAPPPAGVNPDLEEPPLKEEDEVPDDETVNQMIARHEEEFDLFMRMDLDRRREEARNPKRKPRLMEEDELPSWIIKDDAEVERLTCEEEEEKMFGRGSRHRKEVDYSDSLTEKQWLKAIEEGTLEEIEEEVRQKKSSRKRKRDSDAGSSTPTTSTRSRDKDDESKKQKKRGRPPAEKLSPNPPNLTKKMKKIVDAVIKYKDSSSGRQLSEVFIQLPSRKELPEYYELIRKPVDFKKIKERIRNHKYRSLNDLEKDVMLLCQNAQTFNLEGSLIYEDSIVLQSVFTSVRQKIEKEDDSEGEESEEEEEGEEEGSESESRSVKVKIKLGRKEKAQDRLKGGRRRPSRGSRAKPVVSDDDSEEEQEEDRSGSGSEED
Briefly: HiBiT-BRG1 cell-based degradation assay (Nano-Glo HiBiT Lytic Detection, 24 h). The following applies: HeLa cells expressing HiBit-BRG1 and LgBit; for DC50: read-out: BRG1 HiBit Degradation IC50; for Dmax: HeLa, top dose 30 μM, read-out: BRG1 HiBit Degradation Maximum measured. A digest of the protocol: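 Stable HeLa line expressing HiBiT-BRG1 and LgBiT, seeded at 5000 cells/well; luminescence read after lytic Nano-Glo HiBiT reagent and 10 min shaking at RT. % degradation normalised between DMSO (high control) and 2 μM reference BRM/BRG1 degrader (low control).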

T1 sequence (P51531 whole entry, the tested form may be a part): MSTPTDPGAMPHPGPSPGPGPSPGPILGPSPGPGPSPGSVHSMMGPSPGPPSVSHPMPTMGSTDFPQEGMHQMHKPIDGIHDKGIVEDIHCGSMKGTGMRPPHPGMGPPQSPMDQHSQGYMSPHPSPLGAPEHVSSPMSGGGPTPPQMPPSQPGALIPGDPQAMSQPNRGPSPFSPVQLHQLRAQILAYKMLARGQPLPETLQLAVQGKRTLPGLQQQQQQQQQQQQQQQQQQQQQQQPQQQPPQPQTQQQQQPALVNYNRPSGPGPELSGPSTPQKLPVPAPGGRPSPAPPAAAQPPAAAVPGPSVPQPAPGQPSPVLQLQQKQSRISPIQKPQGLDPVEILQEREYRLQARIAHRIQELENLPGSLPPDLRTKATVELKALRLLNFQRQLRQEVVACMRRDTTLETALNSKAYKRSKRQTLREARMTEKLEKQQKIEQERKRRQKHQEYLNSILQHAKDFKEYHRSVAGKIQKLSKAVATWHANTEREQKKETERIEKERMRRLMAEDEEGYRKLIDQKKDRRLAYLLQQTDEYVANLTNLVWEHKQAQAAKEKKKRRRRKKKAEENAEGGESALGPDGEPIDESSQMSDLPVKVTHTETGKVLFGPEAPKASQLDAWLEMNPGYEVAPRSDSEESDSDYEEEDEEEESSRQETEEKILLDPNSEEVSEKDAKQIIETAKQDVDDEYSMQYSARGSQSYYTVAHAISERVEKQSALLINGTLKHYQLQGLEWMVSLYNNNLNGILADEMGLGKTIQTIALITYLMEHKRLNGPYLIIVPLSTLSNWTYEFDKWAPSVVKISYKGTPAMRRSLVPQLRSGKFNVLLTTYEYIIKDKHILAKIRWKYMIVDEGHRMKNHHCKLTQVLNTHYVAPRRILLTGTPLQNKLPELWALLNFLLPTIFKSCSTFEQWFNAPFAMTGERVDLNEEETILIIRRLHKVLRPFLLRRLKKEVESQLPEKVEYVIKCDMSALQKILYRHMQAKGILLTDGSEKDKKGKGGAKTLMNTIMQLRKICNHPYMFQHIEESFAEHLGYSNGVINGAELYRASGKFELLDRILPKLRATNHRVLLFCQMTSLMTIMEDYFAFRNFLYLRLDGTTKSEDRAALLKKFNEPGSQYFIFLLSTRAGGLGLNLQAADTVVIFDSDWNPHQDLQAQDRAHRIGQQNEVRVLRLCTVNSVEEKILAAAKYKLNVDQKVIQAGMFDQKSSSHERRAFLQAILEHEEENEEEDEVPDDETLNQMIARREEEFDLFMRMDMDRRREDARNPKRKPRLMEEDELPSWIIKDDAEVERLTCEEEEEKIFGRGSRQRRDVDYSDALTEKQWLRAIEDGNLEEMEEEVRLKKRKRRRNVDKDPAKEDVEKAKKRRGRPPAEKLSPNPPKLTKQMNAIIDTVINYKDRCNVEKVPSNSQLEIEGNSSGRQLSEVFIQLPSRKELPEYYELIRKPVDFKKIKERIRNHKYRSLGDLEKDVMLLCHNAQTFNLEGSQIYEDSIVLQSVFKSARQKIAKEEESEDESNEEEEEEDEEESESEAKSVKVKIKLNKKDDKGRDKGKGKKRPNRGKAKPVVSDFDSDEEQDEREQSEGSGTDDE

For the compound `CS(=O)(=O)n1ccc(C(=O)NCC(=O)Nc2nc(-c3cccc(-c4cccc(CNC(=O)CCCCCCCCNc5ccc6c(c5)C(=O)N(C5CCC(=O)NC5=O)C6=O)c4)c3)cs2)c1` (stereo not shown) [Compound 54, N-[2-[[4-[3-[3-[[9-[[2-(2,6-dioxo-3-piperidyl)-1,3-dioxo-isoindolin-5-yl]amino]nonanoylamino]methyl]-phenyl]phenyl]thiazol-2-yl]amino]-2-oxo-ethyl]-1-methylsulfonyl-pyrrole-3-carboxamide], in assay [1], the DC50 was greater than 10 µM and the “BRM HiBit Degradation Maximum measured” value was “C (‘C’ = Maximum degradation <50%)”. In addition, in assay [2], the DC50 is greater than 10 µM and the Dmax is less than 50%.
With `CS(=O)(=O)n1ccc(C(=O)NCC(=O)Nc2nc(-c3cccc(-c4cccc(CNC(=O)CCOCCOCCOc5ccc6c(c5)C(=O)N(C5CCC(=O)NC5=O)C6=O)c4)c3)cs2)c1` (stereo not shown) [Compound 55, N-[2-[[4-[3-[3-[[3-[2-[2-[2-(2,6-dioxo-3-piperidyl)-1,3-dioxo-isoindolin-5-yl]oxyethoxy]ethoxy]propanoylamino]-methyl]phenyl]phenyl]thiazol-2-yl]amino]-2-oxo-ethyl]-1-methylsulfonyl-pyrrole-3-carboxamide], in assay [1], the DC50 was 0.1 to 1 µM; the “BRM HiBit Degradation Maximum measured” value was “B (‘B’ = Maximum degradation ≥50% and ≤75%)”. Also, in assay [2], the DC50 lay in the range of 0.1 to 1 µM and the Dmax lay within 50 to 75%.
As to `Cc1ncsc1-c1ccc(CNC(=O)[C@@H]2C[C@@H](O)CN2C(=O)[C@@H](NC(=O)CCCC(=O)NCc2cccc(-c3cccc(-c4csc(NC(=O)CNC(=O)c5ccn(S(C)(=O)=O)c5)n4)c3)c2)C(C)(C)C)cc1` [Compound 56, N′-[(1S)-1-[(2S,4R)-4-hydroxy-2-[[4-(4-methylthiazol-5-yl)phenyl]methylcarbamoyl]pyrrolidine-1-carbonyl]-2,2-dimethyl-propyl]-N-[[3-[3-[2-[[2-[(1-methylsulfonylpyrrole-3-carbonyl)amino]acetyl]amino]thiazol-4-yl]phenyl]phenyl]methyl]pentanediamide], in assay [1], the DC50 was greater than 10 µM and the “BRM HiBit Degradation Maximum measured” value is listed as “C (‘C’ = Maximum degradation <50%)”. In assay [2], the DC50 is greater than 10 µM and the Dmax is less than 50%.
As to `CS(=O)(=O)n1ccc(C(=O)NCC(=O)Nc2nc(-c3cccc(-c4cccc(CNC(=O)CCCCOc5cccc6c5C(=O)N(C5CCC(=O)NC5=O)C6=O)c4)c3)cs2)c1` (stereo not shown) [Compound 57, N-(2-((4-(3′-((5-((2-(2,6-dioxopiperidin-3-yl)-1,3-dioxoisoindolin-4-yl)oxy)pentanamido)methyl)-[1,1′-biphenyl]-3-yl)thiazol-2-yl)amino)-2-oxoethyl)-1-(methylsulfonyl)-1H-pyrrole-3-carboxamide], in assay [1], the DC50 is greater than 10 µM and the “BRM HiBit Degradation Maximum measured” value was “C (‘C’ = Maximum degradation <50%)”. In addition, in assay [2], the DC50 was greater than 10 µM and the Dmax is less than 50%.
With `CS(=O)(=O)n1ccc(C(=O)NCC(=O)Nc2nc(-c3cccc(-c4cccc(CNC(=O)CCCCCCCOc5cccc6c5C(=O)N(C5CCC(=O)NC5=O)C6=O)c4)c3)cs2)c1` (stereo not shown) [Compound 59, N-(2-((4-(3′-((8-((2-(2,6-dioxopiperidin-3-yl)-1,3-dioxoisoindolin-4-yl)oxy)octanamido)methyl)-[1,1′-biphenyl]-3-yl)thiazol-2-yl)amino)-2-oxoethyl)-1-(methylsulfonyl)-1H-pyrrole-3-carboxamide], in assay [1], the DC50 is greater than 10 µM and the “BRM HiBit Degradation Maximum measured” value is listed as “C (‘C’ = Maximum degradation <50%)”. Moreover, in assay [2], the DC50 was greater than 10 µM and the Dmax is less than 50%.
As to `CN(CC(=O)NCCCCCNc1ccc2c(c1)C(=O)N(C1CCC(=O)NC1=O)C2=O)c1cc(-c2cccc(-c3csc(NC(=O)CNC(=O)c4ccn(S(C)(=O)=O)c4)n3)c2)ccn1` (stereo not shown) [Compound 60], in assay [1], the DC50 is greater than 10 µM and the “BRM HiBit Degradation Maximum measured” value was “C (‘C’ = Maximum degradation <50%)”. Further, in assay [2], the DC50 is greater than 10 µM and the Dmax was less than 50%.
For the compound `CS(=O)(=O)n1ccc(C(=O)NCC(=O)Nc2nc(-c3cccc(-c4cccc(CNC(=O)C5CC5CNC(=O)COc5ccc6c(c5)C(=O)N(C5CCC(=O)NC5=O)C6=O)c4)c3)cs2)c1` (stereo not shown) [Compound 61, N-[2-[[4-[3-[3-[[[2-[[[2-[2-(2,6-dioxo-3-piperidyl)-1,3-dioxo-isoindolin-5-yl]oxyacetyl]amino]methyl]-cyclopropanecarbonyl]amino]methyl]-phenyl]phenyl]thiazol-2-yl]amino]-2-oxo-ethyl]-1-methylsulfonyl-pyrrole-3-carboxamide], in assay [1], the DC50 is 1 to 10 µM; the “BRM HiBit Degradation Maximum measured” value is “B (‘B’ = Maximum degradation ≥50% and ≤75%)”. Moreover, in assay [2], the DC50 lay within 0.1 to 1 µM and the Dmax is 50 to 75%.
As to `Cc1ncsc1-c1ccc(CNC(=O)[C@@H]2C[C@@H](O)CN2C(=O)[C@@H](NC(=O)CCCCCC(=O)NCc2cccc(-c3cccc(-c4csc(NC(=O)CNC(=O)c5ccn(S(C)(=O)=O)c5)n4)c3)c2)C(C)(C)C)cc1` [Compound 62, N1-((S)-1-((2S,4R)-4-hydroxy-2-((4-(4-methylthiazol-5-yl)benzyl)carbamoyl)pyrrolidin-1-yl)-3,3-dimethyl-1-oxobutan-2-yl)-N7-((3′-(2-(2-(1-(methylsulfonyl)-1H-pyrrole-3-carboxamido)acetamido)thiazol-4-yl)-[1,1′-biphenyl]-3-yl)methyl)heptanediamide], in assay [1], the DC50 fell in the range of 0.1 to 1 µM and the “BRM HiBit Degradation Maximum measured” value is listed as “A (‘A’ = Maximum degradation >75%)”. Moreover, in assay [2], the DC50 is 0.1 to 1 µM and the Dmax was greater than 75%.
For `Cc1ncsc1-c1ccc(CNC(=O)[C@@H]2C[C@@H](O)CN2C(=O)[C@@H](NC(=O)CCC(=O)NCc2cccc(-c3cccc(-c4csc(NC(=O)CNC(=O)c5ccn(S(C)(=O)=O)c5)n4)c3)c2)C(C)(C)C)cc1` [Compound 63, N1-((S)-1-((2S,4R)-4-hydroxy-2-((4-(4-methylthiazol-5-yl)benzyl)carbamoyl)pyrrolidin-1-yl)-3,3-dimethyl-1-oxobutan-2-yl)-N4-((3′-(2-(2-(1-(methylsulfonyl)-1H-pyrrole-3-carboxamido)acetamido)thiazol-4-yl)-[1,1′-biphenyl]-3-yl)methyl)succinamide], in assay [1], the DC50 is greater than 10 µM and the “BRM HiBit Degradation Maximum measured” value was “C (‘C’ = Maximum degradation <50%)”. Also, in assay [2], the DC50 is greater than 10 µM and the Dmax is less than 50%.
Consider `CS(=O)(=O)n1ccc(C(=O)NCC(=O)Nc2nc(-c3cccc(-c4cccc(CNC(=O)CCOCCOCCOc5cccc6c5C(=O)N(C5CCC(=O)NC5=O)C6=O)c4)c3)cs2)c1` (stereo not shown) [Compound 64, N-[2-[[4-[3-[3-[[3-[2-[2-[2-(2,6-dioxo-3-piperidyl)-1,3-dioxo-isoindolin-4-yl]oxyethoxy]ethoxy]propanoylamino]-methyl]phenyl]phenyl]thiazol-2-yl]amino]-2-oxo-ethyl]-1-methylsulfonyl-pyrrole-3-carboxamide], for which, in assay [1], the DC50 is greater than 10 µM and the “BRM HiBit Degradation Maximum measured” value is recorded as “C (‘C’ = Maximum degradation <50%)”. Besides, in assay [2], the DC50 was greater than 10 µM and the Dmax is less than 50%.
`Cc1ncsc1-c1ccc(CNC(=O)[C@@H]2C[C@@H](O)CN2C(=O)[C@@H](NC(=O)CCCCCCCCCC(=O)NCc2cccc(-c3cccc(-c4csc(NC(=O)CNC(=O)c5ccn(S(C)(=O)=O)c5)n4)c3)c2)C(C)(C)C)cc1` [Compound 65, N1-((S)-1-((2S,4R)-4-hydroxy-2-((4-(4-methylthiazol-5-yl)benzyl)carbamoyl)pyrrolidin-1-yl)-3,3-dimethyl-1-oxobutan-2-yl)-N11-((3′-(2-(2-(1-(methylsulfonyl)-1H-pyrrole-3-carboxamido)acetamido)thiazol-4-yl)-[1,1′-biphenyl]-3-yl)methyl)undecanediamide]: in assay [1], the DC50 was less than 0.1 µM and the “BRM HiBit Degradation Maximum measured” value is reported as “A (‘A’ = Maximum degradation >75%)”. Besides, in assay [2], the DC50 is less than 0.1 µM and the Dmax was greater than 75%.
For `CN(CC(=O)NCCCCNc1ccc2c(c1)C(=O)N(C1CCC(=O)NC1=O)C2=O)c1cc(-c2cccc(-c3csc(NC(=O)CNC(=O)c4ccn(S(C)(=O)=O)c4)n3)c2)ccn1` (stereo not shown) [Compound 67], in assay [1], the DC50 was greater than 10 µM and the “BRM HiBit Degradation Maximum measured” value was “C (‘C’ = Maximum degradation <50%)”. Also, in assay [2], the DC50 was greater than 10 µM and the Dmax was less than 50%.
Take `CS(=O)(=O)n1ccc(C(=O)NCC(=O)Nc2nc(-c3cccc(-c4ccnc(OCCNC(=O)CCOCCOCCOc5cccc6c5C(=O)N(C5CCC(=O)NC5=O)C6=O)c4)c3)cs2)c1` (stereo not shown) [Compound 68, N-[2-[[4-[3-[2-[2-[3-[2-[2-[2-(2,6-dioxo-3-piperidyl)-1,3-dioxoisoindolin-4-yl]oxyethoxy]ethoxy]propanoylamino]ethoxy]-4-pyridyl]phenyl]thiazol-2-yl]amino]-2-oxo-ethyl]-1-methylsulfonyl-pyrrole-3-carboxamide]: in assay [1], the DC50 fell in the range of 0.1 to 1 µM; the “BRM HiBit Degradation Maximum measured” value is “B (‘B’ = Maximum degradation ≥50% and ≤75%)”. Moreover, in assay [2], the DC50 is 0.1 to 1 µM and the Dmax was 50 to 75%.
